Source: US10507193B2, “Ultra low dose doxepin and methods of using the same to treat sleep disorders” (Pernix Sleep, Inc., priority 2006, dated 2019)

How the values were obtained:
Type in all cases: in vivo, human
[1] = system: patient suffering from a sleep disorder; experiment: Patient with a sleep disorder prescribed ultra low dose doxepin, salt or prodrug prior to bedtime; settings: daily dosage 0.1 milligram prior to bedtime
Description: A patient suffers from a sleep disorder. The patient is prescribed doxepin in a daily dosage of 0.1 milligram prior to bedtime. […] A patient suffers from a sleep disorder. The patient is prescribed a pharmaceutically acceptable salt of doxepin in a daily dosage of 0.3 milligrams prior to bedtime. […] A patient suffers from a sleep disorder. The patient is prescribed a pharmaceutically acceptable salt of doxepin in a daily dosage of 0.009 milligrams prior to bedtime. […] A patient suffers from a sleep disorder. The patient is prescribed a pharmaceutically acceptable salt of doxepin in a daily dosage of 0.006 milligrams prior to bedtime. […] A patient suffers from a sleep disorder. The patient is prescribed a pharmaceutically acceptable salt of doxepin in a daily dosage of 0.0007 milligrams prior to bedtime. […] A patient suffers from a sleep disorder. The patient is prescribed a prodrug of doxepin in a daily dosage of 0.1 milligrams prior to bedtime. […] A patient suffers from a sleep disorder. The patient is prescribed a prodrug of doxepin in a daily dosage of 0.0006 milligrams prior to bedtime. […] A patient suffers from a sleep disorder. The patient is prescribed a prodrug of doxepin in a daily dosage of 0.05 milligrams prior to bedtime. […] A patient suffers from a sleep disorder. The patient is prescribed a prodrug of doxepin in a daily dosage of 0.004 milligrams prior to bedtime. […]

[2] = system: patient suffering from chronic insomnia; experiment: Patient with chronic insomnia prescribed ultra low dose doxepin prior to bedtime
Description: A patient suffers from chronic insomnia. The patient is otherwise healthy with normal affect with no depression, anxiety or substance overuse. The patient is prescribed doxepin in a daily dosage of 0.4 milligrams prior to bedtime. […] A patient suffers from chronic insomnia. The patient is otherwise healthy with normal affect with no depression, anxiety or substance overuse. The patient is prescribed doxepin in a daily dosage of 0.2 milligrams prior to bedtime. […] A patient suffers from chronic insomnia. The patient is otherwise healthy with normal affect with no depression, anxiety or substance overuse. The patient is prescribed doxepin in a daily dosage of 0.02 milligrams prior to bedtime. […] A patient suffers from chronic insomnia. The patient is otherwise healthy with normal affect with no depression, anxiety or substance overuse. The patient is prescribed doxepin in a daily dosage of 0.007 milligrams prior to bedtime. […] A patient suffers from chronic insomnia. The patient is otherwise healthy with normal affect with no depression, anxiety or substance overuse. The patient is prescribed doxepin in a daily dosage of 0.009 milligrams prior to bedtime. […] A patient suffers from chronic insomnia. The patient is otherwise healthy with normal affect with no depression, anxiety or substance overuse. The patient is prescribed doxepin in a daily dosage of 0.0002 milligrams prior to bedtime. […] A patient suffers from chronic insomnia. The patient also suffers from depression. The patient is prescribed doxepin in a daily dosage of 0.5 milligram prior to bedtime. […] A patient suffers from chronic insomnia. The patient also suffers from depression. The patient is prescribed doxepin in a daily dosage of 0.03 milligrams prior to bedtime. […] A patient suffers from chronic insomnia. The patient also suffers from depression. The patient is prescribed doxepin in a daily dosage of 0.05 milligrams prior to bedtime. […] A patient suffers from chronic insomnia. The patient also suffers from depression. The patient is prescribed doxepin in a daily dosage of 0.004 milligrams prior to bedtime. […] A patient suffers from chronic insomnia. The patient also suffers from depression. The patient is prescribed doxepin in a daily dosage of 0.0001 milligrams prior to bedtime. […] A patient suffers from chronic insomnia. The patient also suffers from depression. The patient is prescribed doxepin in a daily dosage of 0.0009 milligrams prior to bedtime.

[3] = system: patient suffering from transient or short term insomnia; experiment: Patient with transient or short term insomnia prescribed ultra low dose doxepin prior to bedtime
Description: A patient suffers from transient or short term insomnia. The patient is otherwise healthy with normal affect with no depression, anxiety or substance overuse. The patient is prescribed doxepin in a daily dosage of 0.4 milligrams, prior to bedtime. […] A patient suffers from transient or short term insomnia. The patient is otherwise healthy with normal affect with no depression, anxiety or substance overuse. The patient is prescribed doxepin in a daily dosage of 0.08 milligrams, prior to bedtime. […] A patient suffers from transient or short term insomnia. The patient is otherwise healthy with normal affect with no depression, anxiety or substance overuse. The patient is prescribed doxepin in a daily dosage of 0.009 milligrams, prior to bedtime. […] A patient suffers from transient or short term insomnia. The patient is otherwise healthy with normal affect with no depression, anxiety or substance overuse. The patient is prescribed doxepin in a daily dosage of 0.0005 milligrams prior to bedtime. […] A patient suffers from transient or short term insomnia. The patient also suffers from depression. The patient is prescribed doxepin in a daily dosage of 0.3 milligrams, prior to bedtime. […] A patient suffers from transient or short term insomnia. The patient also suffers from depression. The patient is prescribed doxepin in a daily dosage of 0.1 milligrams, prior to bedtime. […] A patient suffers from transient or short term insomnia. The patient also suffers from depression. The patient is prescribed doxepin in a daily dosage of 0.006 milligrams, prior to bedtime. […] A patient suffers from transient or short term insomnia. The patient is otherwise healthy with normal affect with no depression, anxiety or substance overuse. The patient is prescribed doxepin in a daily dosage of 0.008 milligrams, prior to bedtime. […] A patient suffers from transient or short term insomnia. The patient also suffers from depression. The patient is prescribed doxepin in a daily dosage of 0.001 milligrams, prior to bedtime. […] A patient suffers from transient or short term insomnia. The patient also suffers from depression. The patient is prescribed doxepin in a daily dosage of 0.0003 milligrams prior to bedtime.

[4] = otherwise healthy, no depression, daily dosage 0.009 milligrams prior to bedtime
[5] = otherwise healthy, no depression, daily dosage 0.4 milligrams prior to bedtime

Measured: relief of insomnia

CN(C)CCC=C1c2ccccc2COc2ccccc21 [doxepin, 11-(3-dimethylaminopropylidene)-6,11-dihydrodibenzo-[b,e]-oxepine]
relieves the insomnia: [1] | [2]; otherwise healthy, no depression, daily dosage 0.0002 milligrams prior to bedtime | [2]; otherwise healthy, no depression, daily dosage 0.007 milligrams prior to bedtime | [2]; [4] | [2]; otherwise healthy, no depression, daily dosage 0.02 milligrams prior to bedtime | [2]; otherwise healthy, no depression, daily dosage 0.2 milligrams prior to bedtime | [2]; [5] | [2]; patient also suffers from depression, daily dosage 0.0001 milligrams prior to bedtime | [2]; patient also suffers from depression, daily dosage 0.0009 milligrams prior to bedtime | [2]; patient also suffers from depression, daily dosage 0.004 milligrams prior to bedtime | [2]; patient also suffers from depression, daily dosage 0.03 milligrams prior to bedtime | [2]; patient also suffers from depression, daily dosage 0.05 milligrams prior to bedtime | [2]; patient also suffers from depression, daily dosage 0.5 milligram prior to bedtime | [3]; otherwise healthy, no depression, daily dosage 0.0005 milligrams prior to bedtime | [3]; otherwise healthy, no depression, daily dosage 0.008 milligrams prior to bedtime | [3]; [4] | [3]; otherwise healthy, no depression, daily dosage 0.08 milligrams prior to bedtime | [3]; [5] | [3]; patient also suffers from depression, daily dosage 0.0003 milligrams prior to bedtime | [3]; patient also suffers from depression, daily dosage 0.001 milligrams prior to bedtime | [3]; patient also suffers from depression, daily dosage 0.006 milligrams prior to bedtime | [3]; patient also suffers from depression, daily dosage 0.1 milligrams prior to bedtime | [3]; patient also suffers from depression, daily dosage 0.3 milligrams prior to bedtime
